Laboratory results as given in patent publication US7718651B2, “Inhibitors of FtsZ and uses thereof” (priority 2002, dated 2010).
Values after ≈ are worked out from the molar mass of the structure shown. Where two headings read alike, the source gives them in different places.

What was measured:
Type in all cases: cell-based
M. tuberculosis H37Rv [1] = experiment: microbe, parasite or virus in culture; conditions: for inhibition of growth at 12.5 µg/mL: Mycobacterium tuberculosis, at 12.5% μg/ml (so in the source), read-out: Primary Screen PI (% inhibition of growth); for activity against M. tuberculosis H37Rv in the primary screen: in words
M. tuberculosis H37Rv [2] = experiment: MIC99 determination, BACTEC 460 radiometric system; conditions: for MIC99: Table 3, read-out: Screen 2 MIC99
Vero cells = experiment: Cytotoxicity in Vero cells (MTS assay); conditions: Chlorocebus sabaeus
[3] = M. tuberculosis H37Rv, screen concentration 12.5 g/ml [sic], Table 8
[4] = Mycobacterium tuberculosis, M. tuberculosis H37Rv, Table 8, read-out: MIC
[5] = Vero cells, Table 8, read-out: IC50
[6] = Mycobacterium tuberculosis, M. tuberculosis H37Rv
[7] = Mycobacterium tuberculosis, H37RV
[8] = 72 h, Vero cells, 72 h exposure, Table 3, read-out: IC50

SMILES	% Inh (M. tuberculosis H37Rv [1]; [3]) [%]	MIC (M. tuberculosis H37Rv [2]; [4]) [µg/mL]	IC50 (Vero cells; [5]) [µg/mL]	further results
CCOC(=O)Nc1cc2[nH]c(-c3ccccc3)nc2c(NC(c2ccccc2)c2ccccc2)n1 [Compound A52]	92	12.5 (≈ 27 µM)	> 200	
CCOC(=O)Nc1cc(NC(C)CCCN(CC)CC)c2nc(-c3ccc(Cl)cc3)c(-c3ccc(Cl)cc3)nc2n1 (stereo not drawn) [Compound A6]	99	1.56 (≈ 2.62 µM)		
CCOC(=O)Nc1cc(NC(C)C(O)COc2ccccc2)c(N)c(N)n1 (stereo not drawn) [Compound A35]	97	12.5 (≈ 33.3 µM)	> 1000	
CCOC(=O)Nc1cc(NC(C)CCCN(CC)CC)c2ncc(-c3ccc(Cl)cc3)nc2n1.Cl (stereo not drawn) [Compound A5]	99	1.56		
CCOC(=O)Nc1cc2c(c(N)n1)N=C(c1ccc3c(c1)OCO3)[C@H](C)N2 [Compound A12]	99	12.5 (≈ 33.8 µM)	1.51 (≈ 4.09 µM)	
CCOC(=O)Nc1cc(NC(C)CCCN(CC)CC)c2nc(-c3ccc(Cl)cc3)cnc2n1.Cl.Cl (stereo not drawn) [Compound A34]	97	6.25		IC50 (Vero cells): 2.28 µg/mL
CCOC(=O)Nc1cc2c(c(N)n1)N=C(c1ccccc1)C(c1ccccc1)O2 (stereo not drawn) [CAO-040, (5-Amino-2,3-diphenyl-2H-pyrido-[4,3b][1,4]oxazin-7-yl)-carbamic acid ethyl ester]				inhibition of growth at 12.5 µg/mL (M. tuberculosis H37Rv [1]; M. tuberculosis H37Rv): 90%; activity against M. tuberculosis H37Rv in the primary screen (M. tuberculosis H37Rv [1]): demonstrated activity; MIC99 (M. tuberculosis H37Rv [2]; [6]): 6.25 µg/mL (≈ 16.1 µM)
O=C(Nc1cc(Cl)cc(NC(=O)Oc2ccccc2)n1)Oc1ccccc1 [Compound A36]	97			MIC (M. tuberculosis H37Rv [2]; [7]): 12.5 µg/mL (≈ 32.6 µM)
CCOC(=O)Nc1cc(NC(C)CCCN(CC)CC)c2nc(-c3ccc([N+](=O)[O-])cc3)cnc2n1 (stereo not drawn) [Compound A50]	92			MIC (M. tuberculosis H37Rv [2]; [7]): > 6.25 µg/mL
CCCCC1=Nc2c(cc(NC(=O)OCC)nc2N)NC1C (stereo not drawn) [Compound A41]	95	12.5 (≈ 40.9 µM)	1.51 (≈ 4.94 µM)	
CC(C)OC(=O)Nc1cc2c(c(N)n1)N=C(c1ccccc1)[C@H](C)N2 [Compound A11]	99	12.5 (≈ 36.8 µM)	1.51 (≈ 4.45 µM)	
CCOC(=O)Nc1cc(NC(C)CCCN(CC)CC)c2nc(-c3ccccc3)c(-c3ccccc3)nc2n1 (stereo not drawn) [Compound A1]	100		4.3 (≈ 8.16 µM)	MIC (M. tuberculosis H37Rv [2]; M. tuberculosis H37Rv, Table 8): 0.2 µg/mL (≈ 0.38 µM)
CCOC(=O)Nc1cc2nc(-c3ccccc3)c(-c3ccccc3)nc2c(NC(=O)OCC)n1 [Compound A51]	92	> 6.25		
CCOC(=O)Nc1cc(NC/C(=N\O)C23CC4CC(CC(C4)C2)C3)c([N+](=O)[O-])c(N)n1 [Compound A47]	93	> 12.5		
CCOC(=O)Nc1cc2c(c(N)n1)N=C(c1ccc(OC)cc1)C(C)N2 (stereo not drawn) [Compound A44]	94	12.5 (≈ 35.2 µM)	1.53 (≈ 4.31 µM)	
CCOC(=O)Nc1cc2c(c(N)n1)N=C(c1ccccc1)C(C)(C)S2.Cl [Compound A40]	95	> 6.25		
C[C@@H]1Nc2cc(NC(=O)OCc3ccccc3)nc(N)c2N=C1c1ccccc1 [Compound A26]	98	12.5 (≈ 32.3 µM)	1.51 (≈ 3.9 µM)	
CCOC(=O)Nc1cc(Nc2ccc(Cl)cc2)c2nccnc2n1 [Compound A43]	94	6.25 (≈ 18.2 µM)		
CCOC(=O)Nc1cc(NC(C)C(O)COc2ccccc2)c(N)c(N)n1 (stereo not drawn) [SRI-7405, [5,6-Diamino-4-(2-hydroxy-1-methyl-3-phenoxy-propylamino)-pyridin-2-yl]-carbamic acid ethyl ester]				inhibition of growth at 12.5 µg/mL (M. tuberculosis H37Rv [1]; M. tuberculosis H37Rv): 97%; activity against M. tuberculosis H37Rv in the primary screen (M. tuberculosis H37Rv [1]): demonstrated activity; MIC99 (M. tuberculosis H37Rv [2]; [6]): 12.5 µg/mL (≈ 33.3 µM); IC50 (Vero cells; [8]): > 1000 µg/mL
CCOC(=O)Nc1cc(NC(C)CCCN(CC)CC)c2nc(-c3ccccc3)c(-c3ccccc3)nc2n1.Cl (stereo not drawn) [Compound A21]	98	0.1		IC50 (Vero cells): 8.3 µg/mL
CCOC(=O)Nc1cc(NCc2ccc(S(N)(=O)=O)cc2)c2nc(-c3ccccc3)c(-c3ccccc3)nc2n1 [Compound A33]	97	0.39 (≈ 0.703 µM)	> 6.25	
CCOC(=O)Nc1cc(N)c(N)c(NC(C)C(O)c2ccccc2)n1 (stereo not drawn) [Compound A10]	99	12.5 (≈ 36.2 µM)	> 200	
CCOC(=O)Nc1cc2c(c(N)n1)N=C(c1ccc(OCc3ccccc3)cc1)[C@@H](C)N2 [Compound A9]	99	6.25 (≈ 14.5 µM)		

SMILES	% Inh (M. tuberculosis H37Rv [1]; [3]) [%]	MIC (M. tuberculosis H37Rv [2]; [4]) [µg/mL]	IC50 (Vero cells; [5]) [µg/mL]	further results
CCN(CC)S(=O)(=O)c1ccc(CNc2cc(N)nc3nc(-c4ccccc4)c(-c4ccccc4)nc23)cc1 [Compound 4427-143, 4-[(6-Amino-2,3-diphenyl-pyrdo[2,3b]pyrazin-8-yl-amino)-methyl]-N,N-diethyl-benzenesulfonamide]				inhibition of growth at 12.5 µg/mL (M. tuberculosis H37Rv [1]; M. tuberculosis H37Rv): 99%; activity against M. tuberculosis H37Rv in the primary screen (M. tuberculosis H37Rv [1]): demonstrated activity; MIC99 (M. tuberculosis H37Rv [2]; [6]): 3.13 µg/mL (≈ 5.81 µM)
CCOC(=O)Nc1cc2c(c(N)n1)N=C(c1ccccc1)CCN2 [Compound A2]	100	6.25 (≈ 19.2 µM)	> 200	
CCOC(=O)Nc1cc2c(c(N)n1)N=C(c1ccccc1)C(c1ccccc1)O2 (stereo not drawn) [Compound A55]	90	6.25 (≈ 16.1 µM)		
CCOC(=O)Nc1cc2[nH]c(-c3ccc4c(c3)OCO4)nc2c(NC(c2ccccc2)c2ccccc2)n1 [Compound A39]	95	1.56 (≈ 3.07 µM)	> 200	
CCOC(=O)Nc1cc(NC(C)CCCN(CC)CC)c2ncc(-c3ccccc3)nc2n1.Cl.Cl (stereo not drawn) [Compound A37]	96	12.5		
CCOC(=O)Nc1cc2c(c(N)n1)N=C(c1ccc(OCc3ccccc3)cc1)[C@H](C)N2 [Compound A8]	99	6.25 (≈ 14.5 µM)		
CCOC(=O)Nc1cc2c(c(N)n1)N=C(c1cc(OC)cc(OC)c1)[C@H](C)O2 [Compound A42]	95	12.5 (≈ 32.3 µM)		
CCOC(=O)Nc1cc(NCc2ccc(S(N)(=O)=O)cc2)c2nc(-c3ccccc3)c(-c3ccccc3)nc2n1 [Compound 4427-026-15, [2,3-Diphenyl-8-(4-sulfamoyl-benzylamino)-pyrido[2,3-b]pyrazin-6-yl]-carbamic acid ethyl ester]				inhibition of growth at 12.5 µg/mL (M. tuberculosis H37Rv [1]; M. tuberculosis H37Rv): 97%; activity against M. tuberculosis H37Rv in the primary screen (M. tuberculosis H37Rv [1]): demonstrated activity; MIC99 (M. tuberculosis H37Rv [2]; [6]): 0.39 µg/mL (≈ 0.703 µM); IC50 (Vero cells; [8]): > 6.25 µg/mL
CCOC(=O)Nc1cc2c(c(N)n1)N=C(CN(C)c1ccccc1)CN2 [Compound A53]	92	12.5 (≈ 35.3 µM)	0.41 (≈ 1.16 µM)	
CCOC(=O)Nc1cc(NC(C)CCCN(CC)CC)c2ncc(-c3ccc(OC)cc3)nc2n1.Cl (stereo not drawn) [Compound A22]	98	1.56		IC50 (Vero cells): 8.7 µg/mL
CCOC(=O)Nc1cc(NC(C)CCCN(CC)CC)c2nc(-c3ccc(F)cc3)cnc2n1 (stereo not drawn) [Compound A25]	98			MIC (M. tuberculosis H37Rv [2]; [7]): 12.5 µg/mL (≈ 26.7 µM); IC50 (Vero cells): 6.8 µg/mL (≈ 14.5 µM)
CCOC(=O)Nc1cc2c(c(N)n1)N=C(c1ccccc1)[C@H](C)O2 [Compound A56]	90	12.5 (≈ 38.3 µM)		
CCOC(=O)Nc1cc(NC(C)CCCN(CC)CC)c2ncc(-c3ccc(C(F)(F)F)cc3)nc2n1 (stereo not drawn) [Compound A23]	98			MIC (M. tuberculosis H37Rv [2]; [7]): 6.25 µg/mL (≈ 12.1 µM); IC50 (Vero cells): 1.6 µg/mL (≈ 3.09 µM)
CCOC(=O)Nc1cc2[nH]c(-c3ccc(OC)cc3)nc2c(NC(c2ccccc2)c2ccccc2)n1 [Compound A46]	93	3.13 (≈ 6.34 µM)	189 (≈ 383 µM)	
CCOC(=O)Nc1cc2ncc(C(=O)N(C)c3ccccc3)nc2c(N)n1 [Compound A123]	31			
CCOC(=O)Nc1cc2c(c(N)n1)N=C(c1ccccc1)[C@H](C)N2 [Compound A110]				% Inh (M. tuberculosis H37Rv [1]): 43%
CCOC(=O)Nc1cc(NC(C)C(O)COc2ccccc2)c([N+](=O)[O-])c(N)n1 (stereo not drawn) [Compound A155]	11			
CCOC(=O)Nc1cc(NCC(=O)c2ccc(OC)cc2)c([N+](=O)[O-])c(N)n1 [Compound A237]	0			
CCOC(=O)Nc1cc2[nH]c(-c3ccccc3)nc2c(N(C)Cc2ccccc2)n1 [Compound A3]	99			
CCOC(=O)N(Cc1ccc(S(N)(=O)=O)cc1)c1cc(Cl)c([N+](=O)[O-])c(N)n1 [Compound A294]	0			
COC(=O)Nc1cc(NC(C)/C(=N/O)c2ccccc2)c([N+](=O)[O-])c(N)n1 (stereo not drawn) [Compound A176]	4			
CCOC(=O)Nc1cc(NC(C)/C(=N/O)c2ccc(O)cc2)c([N+](=O)[O-])c(N)n1 (stereo not drawn) [Compound A149]	14			
CCOC(=O)Nc1ccccn1 [Compound A207]	0			
